Data from article PMC11302339, “A series of pyrimidine-based antifungals with anti-mold activity disrupt ER function in Aspergillus fumigatus” (Microbiology Spectrum, 2024).
Converted amounts (≈) assume the structure as drawn. Like-named read-outs stand apart in the source and are kept apart here.

Experiments:
[1] = test system: Saccharomyces cerevisiae BY4741; assay: Generation of resistant isolates (serial passaging); type: cell-based; details: from 1/4 MIC, twofold increases, at least 50 generations
Protocol: Finally, we attempted to generate resistant isolates to understand the rate of resistance and potentially uncover mechanism of action. First, to determine spontaneous rates, we performed high-density plating (~2 × 10^9 cells) of C. neoformans on YPD plates containing 64 µg/mL 1 ([24]). […] Next, we employed serial passaging of both C. neoformans H99 and Saccharomyces cerevisiae BY4741 to evaluate evolved resistance upon exposure to sub-MIC concentrations. Yeast cells were grown in a 96-well format in the presence of 1/4 MIC 1, then cultures were passaged to fresh media containing a twofold increase in drug concentration. At each passage, the inoculum was diluted ~1:100 to allow ~10 generations of growth for a total of at least 50 generations over the course of the experiment.

[2] = Mouse microsome stability; type: in vitro ADME; details: mouse microsomes, 0.5 mg/mL microsomes, NADPH cofactors, 37°C
Protocol: 1 (2 mM in DMSO) was incubated at 37°C with 0.5 mg/mL mouse microsomes (lot # 2110330) fraction and Phase I (NADPH regenerating system) cofactors for 0–120 min at a final concentration of 2 µM. Reactions were quenched with 0.5 mL (1:1) of methanol containing formic acid (FA) 0.2% and 100 ng/mL n-benzylbenzamide internal standard (IS; 0.1% FA and 50ng/mL IS final). Samples were vortexed for 30 s, incubated at room temperature for 10 min, and spun for 5 min at 2,200 rpm in a tabletop centrifuge. Supernatant (~0.9 mL) was then transferred to an Eppendorf tube and spun in a 4°C microfuge for 5 min at 13,200 rpm. Supernatant was transferred to an high-performance liquid chromatography plate with seal and samples then analyzed by a 4500 LC-MS/MS.

C. neoformans = C. neoformans time kill assay; type: cell-based, Cryptococcus neoformans
Protocol: Overnight cultures of H99 were enumerated and diluted 1 × 10^5 CFU/mL in YPD with 4 µg/mL 1, 8 µg/mL 1, or DMSO. Cultures were incubated at 37°C with shaking for 30 hours with sampling at t = 0, 2, 4, 6, 8, 24, and 30 hours, then 10-fold serial dilutions of each sample were prepared and spotted on YPD. Viable colonies were enumerated after 48 hours at 30°C. Data are representative of two independent experiments performed in biological triplicate with technical duplicates.

C. albicans = assay: MIC testing (CLSI broth dilution); type: cell-based, Candida albicans
Protocol: MICs were determined using Clinical and Laboratory Standards Institute guidelines ([48], [49]). All yeasts were cultured overnight in 3 mL YPD at 30°C, then washed twice in sterile phosphate-buffered saline (PBS). Twofold serial dilutions of each drug were prepared in RMPI + MOPS, then 1 × 10^3 cells were added per well. For mold species, wells were inoculated with 1.25 × 10^3 conidia per well. Plates were incubated at 37°C for 24 (Candida spp. and S. cerevisiae), 48 (Aspergillus spp., M. circinelloides, S. apiospermum, and L. prolificans), or 72 (C. neoformans and F. oxysporum) hours. S. cerevisiae BY4743 MICs were tested in YPD due to nutritional requirements of this strain. Each assay was performed in technical duplicate in at least two independent experiments performed on different days.

[3] = test system: S. cerevisiae heterozygous mutants; assay: Chemical haploinsufficiency screen and spot dilution validation; type: cell-based, Saccharomyces cerevisiae; details: YPD 32 µg/mL 1, relative to WT
Protocol: Chemical genetics screening was performed using the Saccharomyces heterozygous deletion collection (Transomic Technologies, TKY3504). Mutant strains were grown overnight in 200 µL YPD in a 96-well plate then pinned into 25 µL PBS using a 96-floating pin multiblot replicator (V&P Scientific Inc, Cat # 408FP6) and library copier (V&P Scientific Inc, Cat # 381). Cell dilutions were then pinned onto an Omni Tray (Nunc, Cat # 242811) single-well plate containing YPD with DMSO or 32 µg/mL 1 for a total of 384 spots per plate. Each plate contained at least one wild type control. Plates were incubated at 30°C and imaged every 24 hours for 4 days. Hits were called by visual evaluation. To validate hits and score growth phenotypes, serial dilutions of OD = 1.0, 0.1, 0.01, and 0.001 were prepared for each mutant from a 200 µL YPD overnight culture in a 96-well plate. Three microliters of each dilution was spotted on YPD containing DMSO or 32 µg /mL 1 and incubated for 72 hours at 30°C. The growth of each mutant on 1 was scored compared to wild-type controls as no inhibition (++++), modest (+++), or severe (+/++) growth inhibition.

Q: Which “evolved resistance, serial passaging” value [1] does the source give for OC1CC(c2cc(N3CCC(CCc4ccccc4)CC3)ncn2)C1 (centres unmarked) [compound 1] here?
A: did not recover stable resistance

Q: And the half-life at 2 µM [2]?
A: 1.25 h

Q: And the “propidium iodide staining of C. neoformans vs vehicle” value (C. neoformans; 8 µg/mL, 24 hours post treatment (Fig. S1))?
A: did not observe changes in propidium iodide

Q: And the “type of activity (time kill)” value (C. neoformans; 2× (4 µg/mL) or 4× (8 µg/mL) MIC over 30 hours)?
A: fungistatic

Q: What about the “viable CFUs vs vehicle-treated controls” value (C. neoformans; 4 or 8 µg/mL, 8, 24 and 30 hours post-treatment) of the same molecule?
A: significantly reduced

Q: And the MIC (C. albicans; Candida albicans, strain SC5314, CLSI conditions, 24 h, read-out: MIC)?
A: 64 µg/mL (≈ 190 µM)

Q: What about the MIC (C. albicans; Candida albicans, strain not named, read-out: MIC) of the same molecule?
A: 64 µg/mL (≈ 190 µM)

Q: And the MIC (C. albicans; strain TWO7241, azole-resistant clinical isolate, CLSI conditions)?
A: 64 µg/mL (≈ 190 µM)

Q: And the MIC (C. albicans; strain TWO7243, azole-resistant clinical isolate, CLSI conditions)?
A: 64 µg/mL (≈ 190 µM)

Q: And the Growth ([3]; mutant YDR361C BCP1)?
A: +++

Q: What about the Growth ([3]; mutant YDR362C TFC6) of the same molecule?
A: +++

Q: What about the Growth ([3]; mutant YDR373W FRQ1) of the same molecule?
A: +++

Q: What about the Growth ([3]; mutant YDR416W SYF1) of the same molecule?
A: +++

Q: What about the Growth ([3]; mutant YER012W PRE1) of the same molecule?
A: +++

Q: What about the Growth ([3]; mutant YFR051C RET2) of the same molecule?
A: +++

Q: What about the Growth ([3]; mutant YGL047W ALG14) of the same molecule?
A: ++

Q: And the Growth ([3]; mutant YGL116W CDC20)?
A: +++

Q: And the Growth ([3]; mutant YGR190C Dubious_HIP1 overlap)?
A: +++

Q: And the Growth ([3]; mutant YGR191W HIP1)?
A: +++

Q: What about the Growth ([3]; mutant YGR216C GPI1) of the same molecule?
A: +++

Q: What about the Growth ([3]; mutant YHR062C RPP1) of the same molecule?
A: +++

Q: What about the Growth ([3]; mutant YHR068W DYS1) of the same molecule?
A: ++

Q: And the Growth ([3]; mutant YHR072W ERG7)?
A: +++

Q: What about the Growth ([3]; mutant YHR107C CDC12) of the same molecule?
A: +++

Q: What about the Growth ([3]; mutant YHR122W CIA2) of the same molecule?
A: +++

Q: What about the Growth ([3]; mutant YHR143W-A RPC10) of the same molecule?
A: ++

Q: And the Growth ([3]; mutant YIL033C BCY1)?
A: +++

Q: And the Growth ([3]; mutant YIL104C SHQ1)?
A: +++

Q: And the Growth ([3]; mutant YIL109C SEC24)?
A: +++

Q: And the Growth ([3]; mutant YIL144W NDC80)?
A: +++

Q: What about the Growth ([3]; mutant YIL147C SLN1) of the same molecule?
A: +++

Q: And the Growth ([3]; mutant YIL150C MCM10)?
A: +++

Q: And the Growth ([3]; mutant YIL171W)?
A: ++

Q: And the Growth ([3]; mutant YIR012W SQT1)?
A: +++

Q: And the Growth ([3]; mutant YKL049C CSE4)?
A: +++

Q: And the Growth ([3]; mutant YKL108W SLD2)?
A: ++

Q: And the Growth ([3]; mutant YKL154W SRP102)?
A: ++

Q: What about the Growth ([3]; mutant YKL180W RPL17A) of the same molecule?
A: ++

Q: And the Growth ([3]; mutant YKL189W HYM1)?
A: ++

Q: And the Growth ([3]; mutant YML085C TUB1)?
A: +

Q: What about the Growth ([3]; mutant YMR185W RTP1) of the same molecule?
A: +++

Q: What about the Growth ([3]; mutant YMR277W FCP1) of the same molecule?
A: +++

Q: What about the Growth ([3]; mutant YMR314W PRE5) of the same molecule?
A: +++

Q: What about the Growth ([3]; mutant YNL287W SEC21) of the same molecule?
A: +++

Q: What about the Growth ([3]; mutant YPL131W RPL5) of the same molecule?
A: +++

Q: What about the Growth ([3]; mutant YPL142C (no gene name)) of the same molecule?
A: +

Q: What about the Growth ([3]; mutant YPL143W RPL33A) of the same molecule?
A: +

Q: What about the Growth ([3]; mutant YPL235W RVB2) of the same molecule?
A: +

Q: And the Growth ([3]; mutant YPL237W SUI3)?
A: +

Q: And the Growth ([3]; mutant YPR035W GLN1)?
A: +++

Q: What about the Growth ([3]; mutant YPR136C Dubious_RRP9 overlap) of the same molecule?
A: ++

Q: What about the Growth ([3]; mutant YPR181C SEC23) of the same molecule?
A: +

Q: And the Growth ([3]; mutant YPR187W RPO26)?
A: +
